In US12173020B2, “New-type oxazolidinone compounds and preparation method therefor” (priority 2019, dated 2024):

Assays:
[1] = tested on: vancomycin-resistant Enterococcus (VRE); assay: agar dilution method, inhibitory effect on VRE; format: cell-based; details: for MIC50: Enterococcus, read-out: Minimum inhibitory concentration (MIC50, μg/ml) VRE
Excerpt: (§1) In order to determine the antibacterial activity of these new oxazolidinone-based compounds, an agar dilution method was used to test the inhibitory effect on methicillin-resistant Staphylococcus aureus (MRSA) and vancomycin-resistant Enterococcus (VRE). The bacteria inhibition effect was expressed as minimum inhibitory concentration (MIC50, μg/ml) The test results are shown in the following table.

[2] = tested on: methicillin-resistant Staphylococcus aureus (MRSA); assay: agar dilution method, inhibitory effect on MRSA; format: cell-based; details: for MIC50: Staphylococcus aureus, read-out: Minimum inhibitory concentration (MIC50, μg/ml) MRSA
Excerpt: as §1

Row | SMILES | MIC50 [1] [µg/mL] | MIC50 [2] [µg/mL] | Minimum inhibitory concentration (MIC50, μg/ml) VRE [1] [µg/mL] | Minimum inhibitory concentration (MIC50, μg/ml) MRSA [2] [µg/mL]
1 | CCn1nnc(-c2ccc(-c3ccc(N4C[C@H](C(O)F)OC4=O)cc3F)cn2)n1.O=P(O)(O)O (stereo partly drawn) [compound 101, (R)-3-(3-fluoro-4-(6-(2-ethyl-2H-tetrazol-5-yl)pyridin-3-yl)phenyl)-5-(hydroxyfluoromethyl) oxazolidin-2-one phosphate] | 0.4 | 0.4 | – | –
2 | CCn1nnc(-c2ccc(-c3ccc(N4C[C@H](C(O)C(F)(F)F)OC4=O)cc3F)cn2)n1.O=P(O)(O)O (stereo partly drawn) [compound 95, (R)-3-(3-fluoro-4-(6-(2-ethyl-2H-tetrazol-5-yl)pyridin-3-yl)phenyl)-5-(1-hydroxy-2-trifluoroethyl) oxazolidin-2-one phosphate] | – | – | 0.3 | 0.3
3 | Cn1nnc(-c2ccc(-c3ccc(N4C[C@@H](C(O)F)OC4=O)cc3F)cn2)n1.O=P(O)(O)O (stereo partly drawn) [compound 92, (S)-3-(3-fluoro-4-(6-(2-methyl-2H-tetrazol-5-yl)pyridin-3-yl)phenyl)-5-(hydroxyfluoromethyl) oxazolidin-2-one phosphate] | 0.9 | 0.9 | – | –
4 | CCC(O)[C@@H]1CN(c2ccc(-c3ccc(-c4nnn(C)n4)nc3)c(F)c2)C(=O)O1.O=P(O)(O)O (stereo partly drawn) [compound 90, (S)-3-(3-fluoro-4-(6-(2-methyl-2H-tetrazol-5-yl)pyridin-3-yl)phenyl)-5-(1-hydroxypropyl) oxazolidin-2-one phosphate] | 2 | 2 | – | –
5 | CCn1nnc(-c2ccc(-c3ccc(N4C[C@H](C(C)O)OC4=O)cc3F)cn2)n1.O=P(O)(O)O (stereo partly drawn) [compound 97, (R)-3-(3-fluoro-4-(6-(2-ethyl-2H-tetrazol-5-yl)pyridin-3-yl)phenyl)-5-(1-hydroxyethyl) oxazolidin-2-one phosphate] | 1.1 | 1.1 | – | –
6 | C=Cn1nnc(-c2ccc(-c3ccc(N4C[C@H](C(O)C(F)(F)F)OC4=O)cc3F)cn2)n1.O=P(O)(O)O (stereo partly drawn) [compound 119, (R)-3-(3-fluoro-4-(6-(2-vinyl-2H-tetrazol-5-yl)pyridin-3-yl)phenyl)-5-(1-hydroxy-2-trifluoroethyl) oxazolidin-2-one phosphate] | – | – | 0.7 | 0.7
7 | CCCn1nnc(-c2ccc(-c3ccc(N4C[C@H](CO)OC4=O)cc3F)cn2)n1.O=P(O)(O)O [compound 81, (R)-3-(3-fluoro-4-(6-(2-propyl-2H-tetrazol-5-yl)pyridin-3-yl)phenyl)-5-(hydroxymethyl) oxazolidin-2-one phosphate] | 1.2 | 1.2 | – | –
8 | CCCn1nnc(-c2ccc(-c3ccc(N4C[C@@H](C(O)F)OC4=O)cc3F)cn2)n1.O=P(O)(O)O (stereo partly drawn) [compound 110, (S)-3-(3-fluoro-4-(6-(2-propyl-2H-tetrazol-5-yl)pyridin-3-yl)phenyl)-5-(hydroxyfluoromethyl) oxazolidin-2-one phosphate] | 0.2 | 0.2 | – | –
9 | CCn1nnc(-c2ccc(-c3ccc(N4C[C@H](CO)OC4=O)cc3F)cn2)n1.O=P(O)(O)O [compound 79, (R)-3-(3-fluoro-4-(6-(2-ethyl-2H-tetrazol-5-yl)pyridin-3-yl)phenyl)-5-(hydroxymethyl) oxazolidin-2-one phosphate] | 1.5 | 1.8 | – | –
10 | C=Cn1nnc(-c2ccc(-c3ccc(N4C[C@H](C(C)O)OC4=O)cc3F)cn2)n1.O=P(O)(O)O (stereo partly drawn) [compound 121, (R)-3-(3-fluoro-4-(6-(2-vinyl-2H-tetrazol-5-yl)pyridin-3-yl)phenyl)-5-(1-hydroxyethyl) oxazolidin-2-one phosphate] | 1.1 | 1.1 | – | –
11 | Cn1nnc(-c2ccc(-c3ccc(N4C[C@@H](C(O)C(F)(F)F)OC4=O)cc3F)cn2)n1.O=P(O)(O)O (stereo partly drawn) [compound 94, (S)-3-(3-fluoro-4-(6-(2-methyl-2H-tetrazol-5-yl)pyridin-3-yl)phenyl)-5-(1-hydroxy-2-trifluoroethyl) oxazolidin-2-one phosphate] | – | – | 1.5 | 1.5

The next lines start with the values.

Row | MIC50 [1] [µg/mL] | MIC50 [2] [µg/mL] | Minimum inhibitory concentration (MIC50, μg/ml) VRE [1] [µg/mL] | Minimum inhibitory concentration (MIC50, μg/ml) MRSA [2] [µg/mL] | SMILES
12 | 0.3 | 0.5 | – | – | Cn1nnc(-c2ccc(-c3ccc(N4C[C@H](C(O)CF)OC4=O)cc3F)cn2)n1.O=P(O)(O)O (stereo partly drawn) [compound 129, (R)-3-(3-fluoro-4-(6-(2-methyl-2H-tetrazol-5-yl)pyridin-3-yl)phenyl)-5-(1-hydroxy-2-fluoroethyl) oxazolidin-2-one phosphate]
13 | – | – | 0.5 | 0.5 | CCn1nnc(-c2ccc(-c3ccc(N4C[C@@H](C(O)C(F)F)OC4=O)cc3F)cn2)n1.O=P(O)(O)O (stereo partly drawn) [compound 134, (S)-3-(3-fluoro-4-(6-(2-ethyl-2H-tetrazol-5-yl)pyridin-3-yl)phenyl)-5-(1-hydroxy-2-difluoroethyl) oxazolidin-2-one phosphate]
14 | – | – | 0.2 | 0.3 | CCn1nnc(-c2ccc(-c3ccc(N4C[C@H](C(O)C(F)F)OC4=O)cc3F)cn2)n1.O=P(O)(O)O (stereo partly drawn) [compound 133, (R)-3-(3-fluoro-4-(6-(2-ethyl-2H-tetrazol-5-yl)pyridin-3-yl)phenyl)-5-(1-hydroxy-2-difluoroethyl) oxazolidin-2-one phosphate]
15 | 0.3 | 0.4 | – | – | C=Cn1nnc(-c2ccc(-c3ccc(N4C[C@@H](C(O)CF)OC4=O)cc3F)cn2)n1.O=P(O)(O)O (stereo partly drawn) [compound 154, (S)-3-(3-fluoro-4-(6-(2-vinyl-2H-tetrazol-5-yl)pyridin-3-yl)phenyl)-5-(1-hydroxy-2-fluoroethyl) oxazolidin-2-one phosphate]
16 | 0.5 | 0.9 | – | – | C=Cn1nnc(-c2ccc(-c3ccc(N4C[C@H](C(O)C5CC5)OC4=O)cc3F)cn2)n1.O=P(O)(O)O (stereo partly drawn) [compound 155, (R)-3-(3-fluoro-4-(6-(2-vinyl-2H-tetrazol-5-yl)pyridin-3-yl)phenyl)-5-(1-hydroxy-1-cyclopropylmethyl) oxazolidin-2-one phosphate]
17 | 0.7 | 0.7 | – | – | C=Cn1nnc(-c2ccc(-c3ccc(N4C[C@@H](C(O)F)OC4=O)cc3F)cn2)n1.O=P(O)(O)O (stereo partly drawn) [compound 126, (S)-3-(3-fluoro-4-(6-(2-vinyl-2H-tetrazol-5-yl)pyridin-3-yl)phenyl)-5-(hydroxyfluoromethyl) oxazolidin-2-one phosphate]
18 | 0.2 | 0.2 | – | – | Cn1nnc(-c2ccc(-c3ccc(N4C[C@@H](C(O)CF)OC4=O)cc3F)cn2)n1.O=P(O)(O)O (stereo partly drawn) [compound 130, (S)-3-(3-fluoro-4-(6-(2-methyl-2H-tetrazol-5-yl)pyridin-3-yl)phenyl)-5-(1-hydroxy-2-fluoroethyl) oxazolidin-2-one phosphate]
19 | 0.4 | 0.4 | – | – | C=Cn1nnc(-c2ccc(-c3ccc(N4C[C@@H](C(O)C5CC5)OC4=O)cc3F)cn2)n1.O=P(O)(O)O (stereo partly drawn) [compound 156, (S)-3-(3-fluoro-4-(6-(2-vinyl-2H-tetrazol-5-yl)pyridin-3-yl)phenyl)-5-(1-hydroxy-1-cyclopropylmethyl) oxazolidin-2-one phosphate]
20 | 0.1 | 0.2 | – | – | C=Cn1nnc(-c2ccc(-c3ccc(N4C[C@H](C(O)CF)OC4=O)cc3F)cn2)n1.O=P(O)(O)O (stereo partly drawn) [compound 153, (R)-3-(3-fluoro-4-(6-(2-vinyl-2H-tetrazol-5-yl)pyridin-3-yl)phenyl)-5-(1-hydroxy-2-fluoroethyl) oxazolidin-2-one phosphate]
21 | 0.3 | 0.3 | – | – | C=Cn1nnc(-c2ccc(-c3ccc(N4C[C@H](C(O)CC)OC4=O)cc3F)cn2)n1.O=P(O)(O)O (stereo partly drawn) [compound 123, (R)-3-(3-fluoro-4-(6-(2-vinyl-2H-tetrazol-5-yl)pyridin-3-yl)phenyl)-5-(1-hydroxypropyl) oxazolidin-2-one phosphate]
22 | 0.2 | 0.4 | – | – | CCn1nnc(-c2ccc(-c3ccc(N4C[C@@H](C(O)CF)OC4=O)cc3F)cn2)n1.O=P(O)(O)O (stereo partly drawn) [compound 136, (S)-3-(3-fluoro-4-(6-(2-ethyl-2H-tetrazol-5-yl)pyridin-3-yl)phenyl)-5-(1-hydroxy-2-fluoroethyl) oxazolidin-2-one phosphate]
23 | – | – | 0.9 | 0.8 | CCCn1nnc(-c2ccc(-c3ccc(N4C[C@H](C(OP(=O)(O)O)C(F)F)OC4=O)cc3F)cn2)n1 (stereo partly drawn) [compound 139, (R)-3-(3-fluoro-4-(6-(2-propyl-2H-tetrazol-5-yl)pyridin-3-yl)phenyl)-5-(1-hydroxy-2-difluoroethyl) oxazolidin-2-one phosphate]
24 | 0.2 | 0.2 | – | – | O=C1O[C@H](C(O)C2CC2)CN1c1ccc(-c2ccc(-c3nnn(C4CC4)n3)nc2)c(F)c1.O=P(O)(O)O (stereo partly drawn) [compound 150, (S)-3-(3-fluoro-4-(6-(2-cyclopropyl-2H-tetrazol-5-yl)pyridin-3-yl)phenyl)-5-(1-hydroxy-1-cyclopropylmethyl) oxazolidin-2-one phosphate]
25 | 0.2 | 0.3 | – | – | CCCn1nnc(-c2ccc(-c3ccc(N4C[C@H](C(O)C5CC5)OC4=O)cc3F)cn2)n1.O=P(O)(O)O (stereo partly drawn) [compound 143, (R)-3-(3-fluoro-4-(6-(2-propyl-2H-tetrazol-5-yl)pyridin-3-yl)phenyl)-5-(1-hydroxy-1-cyclopropylmethyl) oxazolidin-2-one phosphate]
26 | – | – | 0.5 | 0.6 | O=C1O[C@@H](C(O)C(F)F)CN1c1ccc(-c2ccc(-c3nnn(C4CC4)n3)nc2)c(F)c1.O=P(O)(O)O (stereo partly drawn) [compound 145, (R)-3-(3-fluoro-4-(6-(2-cyclopropyl-2H-tetrazol-5-yl)pyridin-3-yl)phenyl)-5-(1-hydroxy-2-difluoroethyl) oxazolidin-2-one phosphate]
